Laboratory results reported in ChEMBL document CHEMBL1154382, “Preliminary SAR analysis of novel antiproliferative N(6),5'-bis-ureidoadenosine derivatives” (2009).

Assays:
Type in all cases: functional
Details in all cases: values are per cent of control
CCRF-CEM = test: Antiproliferative activity against human CCRF-CEM cells at 10 uM assessed as cell growth inhibition relative to control
HL-60(TB) = test: Antiproliferative activity against human HL-60(TB) cells at 10 uM assessed as cell growth inhibition relative to control
K562 = test: Antiproliferative activity against human K562 cells at 10 uM assessed as cell growth inhibition relative to control
MOLT-4 = test: Antiproliferative activity against human MOLT4 cells at 10 uM assessed as cell growth inhibition relative to control
[1] = Antiproliferative activity against human […] cells at 10 uM assessed as cell growth inhibition relative to control
A549 = test: Antiproliferative activity against human A549 cells at 10 uM assessed as cell growth inhibition relative to control
EKVX = test: Antiproliferative activity against human EKVX cells at 10 uM assessed as cell growth inhibition relative to control
PC-3 = test: Antiproliferative activity against human PC3 cells at 10 uM assessed as cell growth inhibition relative to control
HOP-62 = test: Antiproliferative activity against human HOP62 cells at 10 uM assessed as cell growth inhibition relative to control
HOP-92 = test: Antiproliferative activity against human HOP92 cells at 10 uM assessed as cell growth inhibition relative to control
NCI-H226 = test: Antiproliferative activity against human NCI-H226 cells at 10 uM assessed as cell growth inhibition relative to control
NCI-H23 = test: Antiproliferative activity against human NCI-H23 cells at 10 uM assessed as cell growth inhibition relative to control
NCI-H322M = test: Antiproliferative activity against human NCI-H322M cells at 10 uM assessed as cell growth inhibition relative to control
NCI-H460 = test: Antiproliferative activity against human NCI-H460 cells at 10 uM assessed as cell growth inhibition relative to control
NCI-H522 = test: Antiproliferative activity against human NCI-H522 cells at 10 uM assessed as cell growth inhibition relative to control
COLO 205 = test: Antiproliferative activity against human COLO205 cells at 10 uM assessed as cell growth inhibition relative to control
HCC 2998 = test: Antiproliferative activity against human HCC2998 cells at 10 uM assessed as cell growth inhibition relative to control
HCT-116 = test: Antiproliferative activity against human HCT116 cells at 10 uM assessed as cell growth inhibition relative to control
HCT-15 = test: Antiproliferative activity against human HCT15 cells at 10 uM assessed as cell growth inhibition relative to control
HT-29 = test: Antiproliferative activity against human HT-29 cells at 10 uM assessed as cell growth inhibition relative to control
KM12 = test: Antiproliferative activity against human KM12 cells at 10 uM assessed as cell growth inhibition relative to control
SW-620 = test: Antiproliferative activity against human SW620 cells at 10 uM assessed as cell growth inhibition relative to control
LOX IMVI = test: Antiproliferative activity against human LOXIMVI cells at 10 uM assessed as cell growth inhibition relative to control
Malme-3M = test: Antiproliferative activity against human MALME-3M cells at 10 uM assessed as cell growth inhibition relative to control
M14 = test: Antiproliferative activity against human M14 cells at 10 uM assessed as cell growth inhibition relative to control
SK-MEL-2 = test: Antiproliferative activity against human SK-MEL-2 cells at 10 uM assessed as cell growth inhibition relative to control
SK-MEL-28 = test: Antiproliferative activity against human SK-MEL-28 cells at 10 uM assessed as cell growth inhibition relative to control
SK-MEL-5 = test: Antiproliferative activity against human SK-MEL-5 cells at 10 uM assessed as cell growth inhibition relative to control
UACC-257 = test: Antiproliferative activity against human UACC257 cells at 10 uM assessed as cell growth inhibition relative to control
UACC-62 = test: Antiproliferative activity against human UACC62 cells at 10 uM assessed as cell growth inhibition relative to control
SF-268 = test: Antiproliferative activity against human SF268 cells at 10 uM assessed as cell growth inhibition relative to control
SF-295 = test: Antiproliferative activity against human SF295 cells at 10 uM assessed as cell growth inhibition relative to control
SF-539 = test: Antiproliferative activity against human SF539 cells at 10 uM assessed as cell growth inhibition relative to control
SNB-19 = test: Antiproliferative activity against human SNB19 cells at 10 uM assessed as cell growth inhibition relative to control
SNB-75 = test: Antiproliferative activity against human SNB75 cells at 10 uM assessed as cell growth inhibition relative to control
U-251 = test: Antiproliferative activity against human U251 cells at 10 uM assessed as cell growth inhibition relative to control
IGROV-1 = test: Antiproliferative activity against human IGROV1 cells at 10 uM assessed as cell growth inhibition relative to control
OVCAR-3 = test: Antiproliferative activity against human OVCAR-3 cells at 10 uM assessed as cell growth inhibition relative to control
OVCAR-4 = test: Antiproliferative activity against human OVCAR4 cells at 10 uM assessed as cell growth inhibition relative to control
OVCAR-5 = test: Antiproliferative activity against human OVCAR5 cells at 10 uM assessed as cell growth inhibition relative to control
OVCAR-8 = test: Antiproliferative activity against human OVCAR8 cells at 10 uM assessed as cell growth inhibition relative to control
SK-OV-3 = test: Antiproliferative activity against human SKOV3 cells at 10 uM assessed as cell growth inhibition relative to control
786-0 = test: Antiproliferative activity against human 786-0 cells at 10 uM assessed as cell growth inhibition relative to control
A498 = test: Antiproliferative activity against human A498 cells at 10 uM assessed as cell growth inhibition relative to control
ACHN = test: Antiproliferative activity against human ACHN cells at 10 uM assessed as cell growth inhibition relative to control
CAKI-1 = test: Antiproliferative activity against human Caki1 cells at 10 uM assessed as cell growth inhibition relative to control
RXF 393 = test: Antiproliferative activity against human RXF393 cells at 10 uM assessed as cell growth inhibition relative to control
SN12C = test: Antiproliferative activity against human SN12C cells at 10 uM assessed as cell growth inhibition relative to control
TK-10 = test: Antiproliferative activity against human TK10 cells at 10 uM assessed as cell growth inhibition relative to control
UO-31 = test: Antiproliferative activity against human UO31 cells at 10 uM assessed as cell growth inhibition relative to control
BT-549 = test: Antiproliferative activity against human BT549 cells at 10 uM assessed as cell growth inhibition relative to control
[2] = Antiproliferative activity against human Hs 578T cells at 10 uM assessed as cell growth inhibition relative to control
MCF7 = test: Antiproliferative activity against human MCF7 cells at 10 uM assessed as cell growth inhibition relative to control
MDA-MB-231 = test: Antiproliferative activity against human MDA-MB-231 cells at 10 uM assessed as cell growth inhibition relative to control
MDA-MB-468 = test: Antiproliferative activity against human MDA-MB-468 cells at 10 uM assessed as cell growth inhibition relative to control
T47D = test: Antiproliferative activity against human T47D cells at 10 uM assessed as cell growth inhibition relative to control
DU-145 = test: Antiproliferative activity against human DU145 cells at 10 uM assessed as cell growth inhibition relative to control

CCOC(=O)C[C@H]1[C@@H](O[Si](C)(C)C(C)(C)C)[C@H](n2cnc3c(N)ncnc32)O[C@@H]1COC(=O)NC gave a growth, % of control at 10 µM (CCRF-CEM) of 98%, a growth, % of control at 10 µM (HL-60(TB)) of 80% and a growth, % of control at 10 µM (K562) of 86%. It also gave a growth, % of control at 10 µM (MOLT-4) of 55%, a growth, % of control at 10 µM [1] of 79% and a growth, % of control at 10 µM (A549) of 92%. The growth, % of control at 10 µM (EKVX) was 83%, the growth, % of control at 10 µM (PC-3) was 84% and the growth, % of control at 10 µM (HOP-62) was 74%. The growth, % of control at 10 µM (HOP-92) was 95%, the growth, % of control at 10 µM (NCI-H226) was 79% and the growth, % of control at 10 µM (NCI-H23) was 105%. It also gave a growth, % of control at 10 µM (NCI-H322M) of 99%, a growth, % of control at 10 µM (NCI-H460) of 106% and a growth, % of control at 10 µM (NCI-H522) of 75%. It also gave a growth, % of control at 10 µM (COLO 205) of 104%, a growth, % of control at 10 µM (HCC 2998) of 55% and a growth, % of control at 10 µM (HCT-116) of 81%. The growth, % of control at 10 µM (HCT-15) was 87%, the growth, % of control at 10 µM (HT-29) was 100% and the growth, % of control at 10 µM (KM12) was 102%. For the same compound, the growth, % of control at 10 µM (SW-620) was 104%, the growth, % of control at 10 µM (LOX IMVI) was 88% and the growth, % of control at 10 µM (Malme-3M) was 96%. The growth, % of control at 10 µM (M14) was 100%, the growth, % of control at 10 µM (SK-MEL-2) was 111% and the growth, % of control at 10 µM (SK-MEL-28) was 106%. The growth, % of control at 10 µM (SK-MEL-5) was 68%, the growth, % of control at 10 µM (UACC-257) was 94% and the growth, % of control at 10 µM (UACC-62) was 77%. It also gave a growth, % of control at 10 µM (SF-268) of 97%, a growth, % of control at 10 µM (SF-295) of 92% and a growth, % of control at 10 µM (SF-539) of 89%. The growth, % of control at 10 µM (SNB-19) was 92%, the growth, % of control at 10 µM (SNB-75) was 83% and the growth, % of control at 10 µM (U-251) was 86%. It also gave a growth, % of control at 10 µM (IGROV-1) of 118%, a growth, % of control at 10 µM (OVCAR-3) of 98% and a growth, % of control at 10 µM (OVCAR-4) of 78%. It also gave a growth, % of control at 10 µM (OVCAR-5) of 115%, a growth, % of control at 10 µM (OVCAR-8) of 98% and a growth, % of control at 10 µM (SK-OV-3) of 94%. The growth, % of control at 10 µM (786-0) was 87%, the growth, % of control at 10 µM (A498) was 98% and the growth, % of control at 10 µM (ACHN) was 89%. The growth, % of control at 10 µM (CAKI-1) was 79%, the growth, % of control at 10 µM (RXF 393) was 78% and the growth, % of control at 10 µM (SN12C) was 96%. For the same compound, the growth, % of control at 10 µM (TK-10) was 110%, the growth, % of control at 10 µM (UO-31) was 95% and the growth, % of control at 10 µM (BT-549) was 74%. For the same compound, the growth, % of control at 10 µM [2] was 93%, the growth, % of control at 10 µM (MCF7) was 98% and the growth, % of control at 10 µM (MDA-MB-231) was 85%. For the same compound, the growth, % of control at 10 µM (MDA-MB-468) was 77%, the growth, % of control at 10 µM (T47D) was 84% and the growth, % of control at 10 µM (DU-145) was 100%.
